Results reported in patent US12559784B2 (priority 2023, dated 2026).
Several values for one entry are separate records, joined by “and”; a condition that tells them apart may be missing. Identical values can stand only once. Like-named read-outs stand apart in the source and are kept apart here.

Assays:
skin = settings: cited from earlier work
alkaline phosphatase [1] = format: biochemical
Method: New stocks were made the of the 1:100 alkaline phosphatase reaction reagents.
The conditions included: 1:100 dilution of alkaline phosphatase reaction reagent with two solvents (buffered saline and ethanol), dosing in 0.5 mL microcentrifuge tubes with 20 μL of chemical added to 180 μL of reaction reagent, and incubating with p-Nitrophenyl phosphate disodium salt (PNPP) substrate for 1-hour.

alkaline phosphatase [2] = format: biochemical; settings: 3-hour exposure; 10 μL into 90 μL
porcine skin = tested on: porcine skin
Method: Our initial studies involved using fresh and frozen porcine skin “buttons”. These buttons were punched out of porcine skin (Spear Products, Cooopersburg, PA) using a […] biopsy punch tool. Three different kinds of skin buttons were prepared from fresh porcine skin, frozen porcine skin, and frozen porcine skin with the fatty layer removed. […] The next day, the tubes were taken out and vortexed and 500 μL of the solution was aliquoted into cuvettes to read at three different optical density wavelengths (OD190, OD290, OD300) to evaluate the best response.
Skin Preparation • 1. Thaw 2 pieces of frozen porcine skin • 2. Punch out buttons: 24 buttons in each tube filled with 40 mL PB S-Azide 96-well plate Preparation • 1. Plate layout for dosing:
Procedure • 1. Dose each tissue with 140 μL of test chemical • 2. […] Take out of incubator and vortex pulse 3× • 2. Aliquot 500 μL to cuvette and read results at OD190, OD290, and OD300
There were three readings done at an optical density of 190, 290, and 300 nm to evaluate the best response. […] To address the variable exposure conditions, our next studies involved placing a larger porcine skin section into a holder that exposes only the epidermis side with no potential for test chemical exposure from the backside or through the sides.

phosphatase = format: biochemical, porcine; settings: for percent of phosphatase measured (optical density compared to the naïve condition), average: average of two readings; for percent of phosphatase measured (optical density compared to the naïve condition): single readings
Method: Our next studies involved applying the test substance (500 μL) directly to the epidermis side of previously frozen porcine skin (Spear Products, Coopersburg, PA) that is placed in a holder that only exposes the epidermis side for 30 minutes, adding phosphate buffered saline (PBS) with added sodium azide (metabolic inhibitor that ensure no viable tissue), then aliquoting into cuvettes to read at an optical density of 300 nm. […] So, at the end of the initial studies described above, almost out of frustration, we tried to probe for released phosphatase activity using p-Nitrophenyl phosphate disodium salt (PNPP; Sigma Aldrich, St. Louis, MO) substrate solution to detect any presence of phosphatase.
Preparation • 1. Thaw 2 pieces of frozen porcine skin • a. Punch out as many skin discs and mount in holders • 2. Label cuvettes (3 for each chemical) Procedure • 1. Add 500 μL of test chemical to holder; incubate at room temperate for 30 minutes • 2. After 30 minutes, add 2 mL of PBS-Azide to both the holder containing the test chemical; forcefully pipette and re-pipette 10 times • 3. From the holder, aliquot 400 μL into 3 cuvettes; forcefully pipette and re-pipette 3 times before dispensing into cuvettes Reading Results • 1. Measure at OD300 for all cuvettes
Skin corrosion by GHS Category 1 dermal corrosive chemicals results in the disintegration of the epidermis into the dermis.

alkaline phosphatase [3] = test: Alkaline phosphatase experiment, third week: with and without discs; format: biochemical
Text: Our next study focused on an in vitro method of detecting the potential of dermal corrosives to inhibit nonspecific phosphatases that may be released from the skin. We decided to test pure […] instead of relying on endogenous skin phosphatase. Alkaline phosphatase (Sigma Aldrich, St. Louis, MO) was purchased and suspended to make the reaction reagent (10,000 units). […] We note that the ratio used was 0.1 g/ml or 10% chemical—which is far in excess of any pharmaceutical applications. We further note that pharmaceutical enzyme inhibition tests, studies an use involve highly specific active site binding and these assays are conducted at ratios of micrograms-femtograms per ml. These studies are done at these ranges because these are the realistic concentrations for drug applications and therapeutics. […] So when a 50 Kg human consumes the tables, the tissues will be exposed at a 5 mg/50 kg=0.1 mg/kg=0.0000001 g/ml.
Next two quantitative methods were evaluated: 1) using the discs parts from our OptiSafe™ test method and 2) directly into the 24-well plate.
Preparation • 1. Alkaline phosphatase reaction reagent • a. Take 1 vial of AP, add 1 mL of PBS, mix by pipette/re-pipette 10 times • b. To a 50 mL conical tube, add 1 mL of the AP solution prepared above and 40 mL of PBS • 2. Prepare two 24-well plates (1 with discs, 1 without discs) • 3. […] Aliquot 200 μL PNPP and PBS Procedure • 1. Plate 1 (No Discs) • a. Add 1.25 mL from the prepared PBS-AP conical tube to each well (11 wells) • b. Add 100 μL of the test material to the well, mix with the same pipette tip, dispose and repeat for the rest of the test materials • c. Wrap the plate in saran wrap and place into the container • 2. Plate 2 (Discs) • a. Configure the 11 discs in the plate so the plate cover is stable • b. Add 1.25 mL from the prepared PBS-AP conical tube to each well (11 wells) • c. Add 100 μL of the test material to the center of the disc and repeat for the rest of the test materials • d. Put the plate cover on and place into the container • 3. […] Incubate for 1 hour Reading Results • 1. Measure at OD405

[4] = skin, chemical lists of the experiments
[5] = frozen porcine skin with fat layer removed, R 1 and 2
[6] = fresh porcine skin, 140 μL test chemical, R 1 and 2, >3A = outside readable range

| Compound | A2 - Results AVG (alkaline phosphatase [1]) | A2 - Results R1 (alkaline phosphatase [1]) | A2 - Results R3 (alkaline phosphatase [1]) | percent of phosphatase measured (optical density compared to the naïve condition), average (phosphatase) [%] | percent of phosphatase measured (optical density compared to the naïve condition) (phosphatase) | further results |
| --- | --- | --- | --- | --- | --- | --- |
| CC/C=C\CC1=C(C)CCC1=O | 2.527 | 2.405 | 2.704 | – | – | in vivo GHS (skin; rabbit, in vivo): Cat. 2 |
| CC(C)=CCC/C(C)=C/CO | 1.894 | 1.876 | 1.956 | – | – | in vivo GHS (skin; [4]): Cat. 2 |
| C=CCCC=C [1,5-Hexadiene] | 2.717 | 2.692 | 2.693 | – | – | OD405 reading, ethanol solvent, 10 μL dose, 1-hour PNPP (FIG. 7B) (alkaline phosphatase [2]): 2.947; OD405 reading, ethanol solvent, 10 μL dose, 30-minute PNPP (FIG. 7A) (alkaline phosphatase [2]): 1.702 |
| CCCCCBr [1-Bromopentane] | 2.686 | 2.590 | 2.598 | – | – | in vivo GHS (skin; [4]): Cat. 2 |
| CCCCCCCCCCO [1-Decanol] | 2.373 | 2.205 | 2.472 | – | – | in vivo GHS (skin; rabbit, in vivo): Cat. 2 |
| CC(C)(O)CCc1ccccc1 [2-Methyl-4-phenyl-2-butanol] | – | – | – | 99.3 | 98.6% and 100.0% | Corrosive (skin; Yes/No): No; OD290 (porcine skin; fresh porcine skin, R 1 and 2): 0.339 and 0.426; OD300 (porcine skin; fresh porcine skin, R 1 and 2): 0.272 and 0.371; OD190 (porcine skin; [5]): 0.215 and 0.322; OD290 (porcine skin; [5]): 0.079 and 0.094; OD300 (porcine skin; [5]): 0.026 and 0.052; OD190 (porcine skin; frozen porcine skin, R 1 and 2): 0.338 and 0.362; OD290 (porcine skin; frozen porcine skin, R 1 and 2): 0.496 and 0.637; OD300 (porcine skin; frozen porcine skin, R 1 and 2): 0.342 and 0.497 |
| CC(C)(C)c1ccccc1O [2-tert-Butylphenol] | 2.615 | 2.829 | 2.448 | – | – | – |
| BrCCc1ccccc1 [(2-Bromoethyl)benzene] | – | – | – | 100.0 | 100.0% | OD290 (porcine skin; fresh porcine skin, R 1 and 2): 0.125 and 0.133; OD300 (porcine skin; fresh porcine skin, R 1 and 2): 0.080 and 0.094; OD190 (porcine skin; [5]): 0.131 and 0.144; OD290 (porcine skin; [5]): 0.071; OD300 (porcine skin; [5]): 0.030 and 0.034; OD290 (porcine skin; frozen porcine skin, R 1 and 2): 0.279 and 0.254; OD300 (porcine skin; frozen porcine skin, R 1 and 2): 0.137 and 0.128 |
| CC(=O)O [Acetic acid] | 0.850 | 0.996 | 0.829 | 18.9 | 19.1% and 18.6% | Corrosive (skin; rabbit, in vivo): Yes; OD190 (porcine skin; pig): >3A; raw optical density reading (PNPP), with discs (FIG. 3A) (alkaline phosphatase [3]; 405 nm, 100 μL chemical, 1.25 mL reaction reagent (10,000 units), 18 hours 37° C., PNPP 1 hour): 0.106 and 0.102 and 0.103; raw optical density reading (PNPP), without discs (FIG. 3B) (alkaline phosphatase [3]; 405 nm, 100 μL chemical, 1.25 mL reaction reagent, 18 hours 37° C., PNPP 1 hour): 0.104 and 0.129 and 0.101; A1 - Results AVG (alkaline phosphatase [1]): 0.096; A1 - Results R1 (alkaline phosphatase [1]): 0.096; A1 - Results R3 (alkaline phosphatase [1]): 0.096 |
| CC(=O)OCc1ccccc1 [Benzyl Acetate] | 3.385 | 3.42 | 3.484 | – | – | – |
| O=C(OCc1ccccc1)c1ccccc1O [Benzyl Salicylate] | 3.317 | 3.345 | 3.333 | – | – | – |
| CC(C=O)Cc1ccc(C(C)C)cc1 (stereo not shown) [Cyclamen aldehyde] | 2.777 | 2.736 | 2.845 | 100.0 | 100.0% | Corrosive (skin; Yes/No): No; in vivo GHS (skin; [4]): Cat. 2; OD290 (porcine skin; fresh porcine skin, R 1 and 2): 0.290 |
| NCCO [Ethanolamine] | – | – | – | 19.9 | 20.1% and 19.6% | Corrosive (skin; rabbit, in vivo): Yes; OD190 (porcine skin; [6]): >3A; OD290 (porcine skin; fresh porcine skin, R 1 and 2): 0.848 and 1.169; OD300 (porcine skin; fresh porcine skin, R 1 and 2): 0.711 and 1.044; OD190 (porcine skin; [5]): 0.761 and 0.800; OD290 (porcine skin; [5]): 0.168 and 0.093; OD290 (porcine skin; frozen porcine skin, R 1 and 2): 0.708 and 0.767; OD300 (porcine skin; frozen porcine skin, R 1 and 2): 0.524 and 0.598; raw optical density reading (PNPP), with discs (FIG. 3A) (alkaline phosphatase [3]): 0.170 and 0.166 and 0.172; raw optical density reading (PNPP), without discs (FIG. 3B) (alkaline phosphatase [3]): 0.174 and 0.185 and 0.175 |
| CC(CC=O)CCCC(C)(C)O (stereo not shown) [Hydroxycitronellal] | 2.585 | 2.513 | 3.089 | – | – | – |
| CC(C)O [Isopropanol] | 2.528 | 2.294 | 2.389 | – | – | – |
| CCCCCCCCCCCCCC(=O)OC(C)C [Isopropyl Myristate] | 3.339 | 3.413 | 3.360 | – | – | – |
| CCCCCCCCC=O [Nonyl aldehyde] | 2.227 | 2.496 | 2.117 | – | – | in vivo GHS (skin; [4]): Cat. 2; OD405 reading, ethanol solvent, 10 μL dose, 1-hour PNPP (FIG. 7B) (alkaline phosphatase [2]): 3.078; OD405 reading, ethanol solvent, 10 μL dose, 30-minute PNPP (FIG. 7A) (alkaline phosphatase [2]): 1.589 |
| OCCc1ccccc1 [Phenylethyl alcohol] | 3.303 | 3.342 | 3.287 | – | – | – |
| OCCOCCOCCO [Triethylene glycol] | – | – | – | 28.9 | 29.5% and 28.2% | Corrosive (skin; rabbit, in vivo): No |
| CC1=CCC(C(C)(C)O)CC1 (stereo not drawn) [alpha-Terpineol] | 2.589 | 2.223 | 2.793 | – | – | in vivo GHS (skin; rabbit, in vivo): Cat. 2 |
| CCCSSCCC [di-n-Propyl disulfide] | 2.472 | 2.649 | 2.368 | 69.9 | 68.1% and 71.6% | Corrosive (skin; Yes/No): No; in vivo GHS (skin; [4]): Cat. 2; OD190 (porcine skin; [6]): 0.419 and 0.400; OD290 (porcine skin; fresh porcine skin, R 1 and 2): 0.139 and 0.137; OD300 (porcine skin; fresh porcine skin, R 1 and 2): 0.105 and 0.096; OD190 (porcine skin; [5]): 0.443 and 0.405; OD290 (porcine skin; [5]): 0.082 and 0.063; OD300 (porcine skin; [5]): 0.031 and 0.018; OD190 (porcine skin; frozen porcine skin, R 1 and 2): 0.314 and 0.396; OD290 (porcine skin; frozen porcine skin, R 1 and 2): 0.294 and 0.240; OD300 (porcine skin; frozen porcine skin, R 1 and 2): 0.161 and 0.119 |
| C=C(C)[C@@H]1CC=C(CO)CC1 [p-Metha-1,8-dien-7-ol] | 2.793 | 2.757 | 2.868 | – | – | in vivo GHS (skin; [4]): Cat. 2 |
